For series [1] the following is noted: in comparison to a 15 mg dose of hydrocodone.
The next series has as its system opioid receptors. The note with it: cited from earlier work.
The conditions of series [2]: cited from earlier work.

Where a name gives a salt, the structure may show the parent alone.

`COc1ccc2c3c1O[C@H]1[C@@H](O)C=C[C@H]4[C@@H](C2)N(C)CC[C@@]341` [Codeine, codeine]: the “Equianalgesic Calculated Dose” value in series [1] is reported as 90.0 mg. `COc1ccc2c3c1OC1C(=O)CC[C@H]4[C@@H](C2)N(C)CC[C@]314` (stereo partly drawn) [Hydrocodone, 4,5-epoxy-3-methoxy-17-methylmorphinan-6-one]: in series [1], the “Equianalgesic Calculated Dose” value was 15.0 mg. Same read-out and setting: the result for `CN1CC[C@]23CCCC[C@H]2[C@H]1Cc1ccc(O)cc13` [Levorphanol, levorphanol] reads 1.8 mg; that for `CCC(=O)C(CC(C)N(C)C)(c1ccccc1)c1ccccc1` (stereo not drawn) [Methadone, methadone], 9.0 mg.

Regarding `COc1ccc2c3c1OC1C(=O)CC[C@@]4(O)[C@@H](C2)N(C)CC[C@]314` (stereo partly drawn) [Oxycodone, 4,5-epoxy-14-hydroxy-3-methoxy-17-methylmorphinan-6-one], in series [1], the “Equianalgesic Calculated Dose” value is 13.5 mg.

Take `C[C@H]1[C@H]2Cc3ccc(O)cc3[C@]1(C)CCN2CC1CC1` [cyclazocine]: the “duration of action after oral administration” value in the series with opioid receptors (in vivo, po) is roughly 24 h. As for `O=C1CC[C@@]2(O)[C@H]3Cc4ccc(O)c5c4[C@@]2(CCN3CC2CC2)[C@H]1O5` [hydrochloride salt of naltrexone, naltrexone hydrochloride], the solubility in water entry in series [2] is “about 100 mg/cc”. As for `O=C1CC[C@@]2(O)[C@H]3Cc4ccc(O)c5c4[C@@]2(CCN3CC2CC2)[C@H]1O5` [naltrexone], in the series on opioid receptors (normal volunteers, three 100-mg doses, MS Contin), the “blockade of morphine effects” value is recorded as “blocked”. On to meperidine, for which the “Equianalgesic Calculated Dose” value in series [1] is 135.0 mg.
